Results: ChEMBL document CHEMBL3860023, “Structural optimization of pyridine-type DAPY derivatives to exploit the tolerant regions of the NNRTI binding pocket” (Eur J Med Chem, 2016)
pEC50, pIC50: −log10 of the molar value.

Experiments:
[1] = Selectivity index, ratio of CC50 for mock-infected human MT4 cells to EC50 for HIV1 3B expressing wild type reverse transcriptase; format: toxicity, cell-based; conditions: read-out: Ratio CC50/EC50
[2] = system: Human immunodeficiency virus 1; assay: Antiviral activity against HIV1 RES056 expressing reverse transcriptase K103N/Y181C double mutant infected in human MT4 cells assessed as protection against virus-induced cytopathic effect after 5 days by MTT assay; format: functional, cell-based; conditions: Human immunodeficiency virus 1, RES056, MT4, 120 h
[3] = Solubility of the compound; format: physicochemical
[4] = Cytotoxicity against mock-infected human MT4 cells assessed as reduction in cell viability after 5 days by MTT assay; format: toxicity, cell-based
[5] = Selectivity index, ratio of CC50 for mock-infected human MT4 cells to EC50 for HIV1 RES056 expressing reverse transcriptase K103N/Y181C double mutant; format: toxicity, cell-based; conditions: read-out: Ratio CC50/EC50
[6] = molecular target: Human immunodeficiency virus type 1 reverse transcriptase (Human immunodeficiency virus 1, UniProt Q72547); assay: Inhibition of recombinant wild type HIV1 p66/p51 using poly(rA) template/oligo(dT)16 primer after 40 mins by PicoGreen-based spectrofluorometric method
[7] = system: Human immunodeficiency virus 1; assay: Antiviral activity against HIV1 3B expressing wild type reverse transcriptase infected in human MT4 cells assessed as protection against virus-induced cytopathic effect after 5 days by MTT assay; format: functional, cell-based; conditions: Human immunodeficiency virus 1, 3B, MT4, 120 h

Row | Structure (SMILES) | selectivity ratio [1] | pEC50 [2] | solubility [3] [µM] | CC50 at 120 h [4] [nM] | selectivity ratio [5] | pIC50 [6] | pEC50 [7]
1 | Cc1cc(C#N)cc(C)c1Oc1cc(Cl)nc(Nc2ccc(C#N)cc2)c1 | 54 | < 4.24 | > 3 | 57700 | < 1 | 6.11 | 5.97
2 | Cc1cc(C)c(Oc2cc(Cl)nc(Nc3ccc(C#N)cc3)c2)c(C)c1 | 26 | < 4.97 | > 14 | 10800 | < 1 | 6.61 | 6.39
3 | COc1cc(Oc2c(C)cc(C#N)cc2C)cc(NC2CCN(Cc3ccccc3)CC2)n1 | 37 | < 5.46 | > 56 | 3500 | < 1 | 6.58 | 7.00
4 | Cc1cc(C)c(Oc2cc(Cl)nc(NC3CCN(Cc4ccncc4)CC3)c2)c(C)c1 | 247 | ≤ 4.98 | > 57 | 10400 | ≤ 1 | 7.09 | 7.38
5 | COc1cc(Oc2c(C)cc(C#N)cc2C)cc(NC2CCN(Cc3ccc(S(N)(=O)=O)cc3)CC2)n1 | 1280 | 5.17 | > 48 | 10000 | 1 | 6.88 | 8.11
6 | COc1cc(Oc2c(C)cc(C#N)cc2C)cc(NC2CCN(Cc3ccc(S(C)(=O)=O)cc3)CC2)n1 | 133 | < 5.77 | > 48 | 1700 | < 1 | 6.76 | 7.92
7 | Cc1cc(C#N)cc(C)c1Oc1cc(Cl)nc(NC2CCN(CC3CC3)CC2)c1 | ≤ 2 |  | > 304 | 9600 |  |  | ≤ 5.19
8 | Cc1cc(C)c(Oc2cc(Cl)nc(NC3CCN(CC4CC4)CC3)c2)c(C)c1 | < 1 |  | > 62 | 5200 |  |  | < 5.28
9 | Cc1cc(C#N)cc(C)c1Oc1cc(Cl)nc(NC2CCN(CC3CCC3)CC2)c1 | < 1 | < 5.38 | > 59 | 4200 | < 1 |  | < 5.38
10 | COc1cc(Oc2c(C)cc(C#N)cc2C)cc(NC2CCN(CC3CC3)CC2)n1 | ≤ 1 |  | > 307 | 8600 |  |  | ≤ 5.04
11 | Cc1cc(C)c(Oc2cc(Cl)nc(NC3CCN(Cc4ccc(S(N)(=O)=O)cc4)CC3)c2)c(C)c1 | 161 | ≤ 5.03 | > 49 | 5400 | ≤ 1 | 6.80 | 7.48
12 | COc1cc(Oc2c(C)cc(C#N)cc2C)cc(NC2CCN(Cc3ccncc3)CC2)n1 | 1570 | 5.21 | > 11 | 20800 | 3 | 7.09 | 7.89
13 | Cc1cc(C#N)cc(C)c1Oc1cc(Cl)nc(NC2CCN(Cc3ccncc3)CC2)c1 | 1070 | ≤ 5.19 | > 56 | 9700 | ≤ 1 | 7.40 | 8.04
14 | Cc1cc(C#N)cc(C)c1Oc1cc(Cl)nc(NC2CCN(Cc3ccccc3)CC2)c1 | 88 | < 5.37 | > 56 | 4300 | < 1 | 6.77 | 7.31
15 | Cc1cc(C)c(Oc2cc(Cl)nc(NC3CCN(Cc4ccc(C(N)=O)cc4)CC3)c2)c(C)c1 | 230 | < 5.09 | > 52 | 8200 | < 1 | 7.01 | 7.46
16 | Cc1cc(C#N)cc(C)c1Oc1cc(Cl)nc(NC2CCN(Cc3ccc(S(C)(=O)=O)cc3)CC2)c1 | 168 | < 5.82 | > 48 | 1500 | < 1 | 7.10 | 8.04
17 | Cc1cc(C)c(Oc2cc(Cl)nc(NC3CCN(Cc4ccccc4)CC3)c2)c(C)c1 | 63 | < 5.01 | > 287 | 9700 | < 1 | 6.54 | 6.82
18 | Cc1cc(C)c(Oc2cc(Nc3ccc(C#N)cc3)nc(OCCCN3CCOCC3)c2)c(C)c1 | 18 | < 4.73 | > 11 | 18800 | < 1 | 5.39 | 5.96
19 | COc1cc(Oc2c(C)cc(C#N)cc2C)cc(NC2CCN(Cc3ccc(C(N)=O)cc3)CC2)n1 | 1140 | ≤ 5.18 | > 257 | 22900 | ≤ 3 | 6.95 | 7.70
20 | Cc1cc(C#N)cc(C)c1Oc1cc(Cl)nc(NC2CCN(Cc3ccc(C(N)=O)cc3)CC2)c1 | 1010 | ≤ 5.01 | > 51 | 9800 | ≤ 1 | 7.05 | 8.00
21 | Cc1cc(C)c(Oc2cc(Cl)nc(Nc3ccc(CN4CCOCC4)cc3)c2)c(C)c1 | 11 | < 4.59 | > 57 | 26000 | < 1 | 5.58 | 5.62
22 | Cc1cc(C#N)cc(C)c1Oc1cc(Cl)nc(Nc2ccc(CN3CCOCC3)cc2)c1 | 7 | < 5.16 | > 56 | 7000 | < 1 | 5.88 | 6.03
23 | Cc1cc(C)c(Oc2cc(Cl)nc(NC3CCN(CC4CCC4)CC3)c2)c(C)c1 | < 1 |  | > 60 | 4600 |  |  | < 5.34
24 | Cc1cc(C#N)cc(C)c1Oc1cc(Cl)nc(NC2CCN(Cc3ccc(S(N)(=O)=O)cc3)CC2)c1 | 946 | < 5.15 | > 48 | 7000 | < 1 | 7.24 | 8.13
25 | CC(C)Nc1cccnc1N1CCN(C(=O)c2cc3cc(NS(C)(=O)=O)ccc3[nH]2)CC1 [DELAVIRDINE] | > 59 | < 4.44 |  | > 36200 |  |  | 
26 | O=C1Nc2ccc(Cl)cc2[C@@](C#CC2CC2)(C(F)(F)F)O1 [EFAVIRENZ] |  | 6.62 |  | > 6300 |  |  | 8.17
27 | Cc1cc(C#N)cc(C)c1Oc1nc(Nc2ccc(C#N)cc2)nc(N)c1Br [ETRAVIRINE] |  |  | < 1 | > 4600 |  |  | 8.02
28 | Nc1ccn([C@@H]2CS[C@H](CO)O2)c(=O)n1 [LAMIVUDINE] | > 28 |  |  | > 87200 |  |  | 5.51
29 | Cc1ccnc2c1NC(=O)c1cccnc1N2C1CC1 [NEVIRAPINE] |  | ≤ 5.01 |  | > 15000 |  |  | 
30 | Cc1cn([C@H]2C[C@H](N=[N+]=[N-])[C@@H](CO)O2)c(=O)[nH]c1=O [ZIDOVUDINE] | > 13400 |  |  | > 93500 | > 15000 |  | 
